As a reminder, the Ki is the equilibrium dissociation constant of an inhibitor or competing ligand from its target. By EC50 is commonly meant the concentration that produces a half-maximal response.

Experiment [1] concerns the target T1, D(2) dopamine receptor (Homo sapiens, UniProt P14416). Kind of experiment: Displacement of [3H]-N-methylspiperone from human dopmaine D2L receptor expressed in CHO cell membrane assessed as inhibition constant by competition binding assay. The format is cell membranes. For orientation: In a radioligand displacement assay an active substance lowers the binding of a labelled ligand.

In experiment [2] the target is T1, D(2) dopamine receptor. Kind of experiment: Displacement of [3H]-N-methylspiperone from human dopmaine D2S receptor expressed in CHO cell membrane assessed as inhibition constant by competition binding assay. The format is cell membranes.
In a further experiment the target is D(3) dopamine receptor (Homo sapiens, UniProt P35462). Briefly: Displacement of [3H]-N-methylspiperone from human dopmaine D3 receptor expressed in HEK293T cells assessed as inhibition constant by competition binding assay. In kind it is cell-based.
Experiment [3] deals with T2, D(4) dopamine receptor (Homo sapiens, UniProt P21917).
T2 sequence (P21917 whole entry): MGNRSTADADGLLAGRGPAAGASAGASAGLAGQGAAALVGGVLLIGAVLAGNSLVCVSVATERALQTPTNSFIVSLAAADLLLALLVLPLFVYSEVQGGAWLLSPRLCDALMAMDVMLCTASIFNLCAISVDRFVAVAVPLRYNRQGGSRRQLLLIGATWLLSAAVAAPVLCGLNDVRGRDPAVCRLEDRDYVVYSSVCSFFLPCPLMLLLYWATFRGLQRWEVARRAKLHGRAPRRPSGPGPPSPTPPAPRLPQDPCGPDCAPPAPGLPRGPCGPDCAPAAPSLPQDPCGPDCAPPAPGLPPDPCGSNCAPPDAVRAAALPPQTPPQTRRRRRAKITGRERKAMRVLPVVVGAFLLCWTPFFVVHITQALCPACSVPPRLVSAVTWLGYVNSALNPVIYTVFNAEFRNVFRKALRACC
Kind of experiment: Displacement of [3H]-N-methylspiperone from human dopmaine D4.4 receptor expressed in HEK293T cells assessed as inhibition constant by competition binding assay. The format is cell-based.

In experiment [4] the target is T2, D(4) dopamine receptor. Briefly: Agonist activity at human dopamine D4 receptor transfected in HEK293T cells co-transfected with Galpha-qi assessed as activation of GPCR-mediated receptor signaling incubated for 90 mins by IP-one HTRF assay. In kind it is functional, cell-based. On the technique in general: TR-FRET usually uses a lanthanide donor and a delayed reading to cut background.

The target of experiment [5] is T2, D(4) dopamine receptor. Briefly: Agonist activity at PKA-tagged human dopamine D4 receptor transfected in HEK293T cells expressing (EA)-beta-arrestin assessed as beta-arrestin recruitment incubated for 3 hrs by chemiluminescence based PathHunter assay. In kind it is functional, cell-based. For orientation: Arrestin recruitment assays detect the binding of arrestin to an activated receptor.

For experiment [6], the target named is T2, D(4) dopamine receptor. Kind of experiment: Agonist activity at PKA-tagged human dopamine D4 receptor transfected in HEK293T cells expressing (EA)-beta-arrestin and GRK2 assessed as beta-arrestin recruitment incubated for 3 hrs by chemiluminescence based PathHunter assay. The format is functional, cell-based.
A further experiment concerns the target D(1A) dopamine receptor (Homo sapiens, UniProt P21728). Briefly: Displacement of [3H]SCH23390 from human dopamine D1 receptor expressed in HEK293T cells assessed as inhibition constant by competition binding assay. In kind it is cell-based.
Another experiment deals with D(1B) dopamine receptor (Homo sapiens, UniProt P21918). Kind of experiment: Displacement of [3H]SCH23390 from human dopamine D5 receptor expressed in HEK293T cells assessed as inhibition constant by competition binding assay. In kind it is cell-based.
Experiment [7] concerns the target T3, Alpha-1A adrenergic receptor (Homo sapiens, UniProt P35348).
T3 sequence (P35348 whole entry): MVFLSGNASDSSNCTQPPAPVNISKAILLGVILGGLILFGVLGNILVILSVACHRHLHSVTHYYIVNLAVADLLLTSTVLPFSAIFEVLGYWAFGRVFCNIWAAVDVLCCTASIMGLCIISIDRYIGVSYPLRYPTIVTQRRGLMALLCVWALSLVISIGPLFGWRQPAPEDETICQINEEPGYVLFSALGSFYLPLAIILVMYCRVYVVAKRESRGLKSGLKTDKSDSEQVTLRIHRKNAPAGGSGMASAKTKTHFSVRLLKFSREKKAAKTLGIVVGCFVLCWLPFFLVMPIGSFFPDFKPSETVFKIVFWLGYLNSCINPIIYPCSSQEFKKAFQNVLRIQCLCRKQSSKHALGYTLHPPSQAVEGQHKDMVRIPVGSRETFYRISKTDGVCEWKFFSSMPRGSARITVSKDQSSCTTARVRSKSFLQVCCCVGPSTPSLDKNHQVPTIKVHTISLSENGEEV
Kind of experiment: Displacement of [3H]prazosin from adrenergic alpha 1A receptor (unknown origin) expressed in HEK293T cells assessed as inhibition constant by competition binding assay. The format is cell-based.

Experiment [8] addresses T4, Alpha-2A adrenergic receptor (Homo sapiens, UniProt P08913).
T4 sequence (P08913 whole entry): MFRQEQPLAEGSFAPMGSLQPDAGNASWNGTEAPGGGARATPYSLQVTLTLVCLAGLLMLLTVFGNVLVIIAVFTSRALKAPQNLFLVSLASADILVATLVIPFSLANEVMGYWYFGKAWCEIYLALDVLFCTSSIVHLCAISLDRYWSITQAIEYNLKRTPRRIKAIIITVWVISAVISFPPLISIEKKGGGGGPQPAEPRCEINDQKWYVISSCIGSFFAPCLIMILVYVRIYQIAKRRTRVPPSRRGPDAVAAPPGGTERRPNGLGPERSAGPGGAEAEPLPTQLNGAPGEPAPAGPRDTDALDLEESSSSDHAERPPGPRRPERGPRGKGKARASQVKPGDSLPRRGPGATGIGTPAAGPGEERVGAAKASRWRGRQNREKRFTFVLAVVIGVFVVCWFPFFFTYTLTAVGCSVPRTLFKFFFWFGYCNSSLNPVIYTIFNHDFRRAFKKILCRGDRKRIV
Kind of experiment: Displacement of [3H]RX821002 from adrenergic alpha 2A receptor (unknown origin) expressed in HEK293T cells assessed as inhibition constant by competition binding assay. The format is cell-based.

Experiment [9] addresses T5, 5-hydroxytryptamine receptor 1A (Homo sapiens, UniProt P08908).
T5 sequence (P08908 whole entry): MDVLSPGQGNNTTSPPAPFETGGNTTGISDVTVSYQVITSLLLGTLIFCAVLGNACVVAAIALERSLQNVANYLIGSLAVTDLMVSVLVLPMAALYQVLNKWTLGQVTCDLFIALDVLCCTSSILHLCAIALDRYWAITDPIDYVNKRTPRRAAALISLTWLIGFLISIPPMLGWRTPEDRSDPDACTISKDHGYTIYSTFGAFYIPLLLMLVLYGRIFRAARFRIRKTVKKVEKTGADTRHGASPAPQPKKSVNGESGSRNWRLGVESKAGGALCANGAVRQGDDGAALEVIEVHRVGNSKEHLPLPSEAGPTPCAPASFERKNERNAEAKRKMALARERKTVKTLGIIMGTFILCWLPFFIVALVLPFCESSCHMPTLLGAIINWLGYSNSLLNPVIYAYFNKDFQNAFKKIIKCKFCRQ
Kind of experiment: Displacement of [3H][…] from 5-HT1A receptor (unknown origin) expressed in HEK293T cells assessed as inhibition constant by competition binding assay. In kind it is cell-based.

Experiment [10] deals with 5-hydroxytryptamine receptor 2A (Homo sapiens, UniProt P28223). Briefly: Displacement of [3H]ketanserin from 5-HT2A receptor (unknown origin) expressed in HEK293T cells assessed as inhibition constant by competition binding assay. The format is cell-based.
Chain of 5-hydroxytryptamine receptor 2A (P28223 whole entry): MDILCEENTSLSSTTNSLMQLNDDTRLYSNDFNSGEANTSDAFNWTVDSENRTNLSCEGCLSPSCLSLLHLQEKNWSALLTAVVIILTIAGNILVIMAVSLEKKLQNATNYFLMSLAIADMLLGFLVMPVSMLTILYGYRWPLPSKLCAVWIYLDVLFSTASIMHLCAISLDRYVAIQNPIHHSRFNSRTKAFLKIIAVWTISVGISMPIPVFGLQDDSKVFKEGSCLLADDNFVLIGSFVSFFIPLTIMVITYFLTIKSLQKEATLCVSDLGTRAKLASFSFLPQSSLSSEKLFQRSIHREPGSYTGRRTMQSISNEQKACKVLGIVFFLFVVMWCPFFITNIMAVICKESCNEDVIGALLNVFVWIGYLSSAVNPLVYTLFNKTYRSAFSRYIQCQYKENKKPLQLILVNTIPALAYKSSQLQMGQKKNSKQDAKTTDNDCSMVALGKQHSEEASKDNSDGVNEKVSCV

Chain of D(3) dopamine receptor (P35462 whole entry): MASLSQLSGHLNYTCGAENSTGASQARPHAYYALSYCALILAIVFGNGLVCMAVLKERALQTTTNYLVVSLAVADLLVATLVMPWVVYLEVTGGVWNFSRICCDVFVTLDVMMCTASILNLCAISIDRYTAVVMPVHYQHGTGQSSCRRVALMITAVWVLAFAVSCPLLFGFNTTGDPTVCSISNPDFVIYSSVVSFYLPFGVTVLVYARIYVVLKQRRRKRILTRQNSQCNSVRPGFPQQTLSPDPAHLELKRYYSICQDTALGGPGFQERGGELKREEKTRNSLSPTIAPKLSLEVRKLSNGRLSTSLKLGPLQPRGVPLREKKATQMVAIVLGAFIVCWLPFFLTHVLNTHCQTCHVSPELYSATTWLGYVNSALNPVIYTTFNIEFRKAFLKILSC
T1 sequence (P14416 whole entry): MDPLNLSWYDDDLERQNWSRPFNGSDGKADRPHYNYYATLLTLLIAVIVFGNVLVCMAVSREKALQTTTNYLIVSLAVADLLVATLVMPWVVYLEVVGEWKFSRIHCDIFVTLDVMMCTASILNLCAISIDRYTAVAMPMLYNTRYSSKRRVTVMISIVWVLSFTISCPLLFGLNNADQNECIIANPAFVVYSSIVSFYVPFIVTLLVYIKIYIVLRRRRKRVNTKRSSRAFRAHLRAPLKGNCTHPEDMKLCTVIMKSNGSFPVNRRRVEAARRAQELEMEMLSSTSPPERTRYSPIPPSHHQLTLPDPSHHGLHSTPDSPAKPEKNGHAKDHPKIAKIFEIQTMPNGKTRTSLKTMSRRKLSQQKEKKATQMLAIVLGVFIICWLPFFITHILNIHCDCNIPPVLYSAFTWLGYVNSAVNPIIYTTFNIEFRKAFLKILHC
Chain of D(1A) dopamine receptor (P21728 whole entry): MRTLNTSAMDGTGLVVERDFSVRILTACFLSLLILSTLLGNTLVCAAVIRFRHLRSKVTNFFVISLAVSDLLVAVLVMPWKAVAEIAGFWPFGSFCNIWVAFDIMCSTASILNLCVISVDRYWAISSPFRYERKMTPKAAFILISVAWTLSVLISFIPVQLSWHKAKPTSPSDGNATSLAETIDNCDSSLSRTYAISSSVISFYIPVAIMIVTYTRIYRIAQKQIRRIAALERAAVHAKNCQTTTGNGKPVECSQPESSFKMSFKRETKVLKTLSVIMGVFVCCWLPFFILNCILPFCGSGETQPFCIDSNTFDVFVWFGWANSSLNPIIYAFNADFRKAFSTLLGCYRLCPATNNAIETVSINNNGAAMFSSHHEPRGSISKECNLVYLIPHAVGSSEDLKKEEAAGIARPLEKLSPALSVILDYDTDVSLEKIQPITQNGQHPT
Chain of D(1B) dopamine receptor (P21918 whole entry): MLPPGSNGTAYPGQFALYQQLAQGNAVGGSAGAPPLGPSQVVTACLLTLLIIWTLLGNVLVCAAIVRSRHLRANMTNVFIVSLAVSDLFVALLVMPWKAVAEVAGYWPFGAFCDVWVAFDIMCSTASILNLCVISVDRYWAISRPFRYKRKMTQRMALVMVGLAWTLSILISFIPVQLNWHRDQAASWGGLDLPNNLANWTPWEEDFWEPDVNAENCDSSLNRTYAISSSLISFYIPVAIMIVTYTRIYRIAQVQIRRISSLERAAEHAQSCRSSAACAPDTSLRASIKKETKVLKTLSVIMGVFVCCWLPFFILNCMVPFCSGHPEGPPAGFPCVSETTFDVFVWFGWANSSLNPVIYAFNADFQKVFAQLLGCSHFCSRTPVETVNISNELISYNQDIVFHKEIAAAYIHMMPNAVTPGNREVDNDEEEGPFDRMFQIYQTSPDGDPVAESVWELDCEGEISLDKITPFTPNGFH

For `C#CCOc1ccc(NC(=O)NCCCN2CCN(c3ccccc3OC)CC2)c(-c2ccccc2)c1`, the Ki is 86 nM at D(2) dopamine receptor [1], 46 nM on D(2) dopamine receptor [2], 39 nM on D(3) dopamine receptor and 3.5 nM on D(4) dopamine receptor [3].
In the same order, the values of `COc1ccccc1N1CCN(CCCNC(=O)NCc2ccccc2-c2ccc(C)cc2)CC1` are 110 nM, 62 nM, 89 nM and 4.2 nM.
On the same counts, the results for `COc1ccc(NC(=O)NCCCN2CCN(c3ccccc3OC)CC2)cc1-c1ccc(F)cc1` are 89 nM, 53 nM, 66 nM and 5.8 nM.
For `COc1ccccc1N1CCN(CCCNC(=O)NN(Cc2ccc(F)cc2)c2ccccc2)CC1`, the EC50 on D(4) dopamine receptor [4] stood at 1.8 nM; at D(4) dopamine receptor [5], 350 nM; at D(4) dopamine receptor [6] it was 42 nM.
`COc1ccccc1N1CCN(CCCNC(=O)NCc2cccc(F)c2-c2ccccc2)CC1`: the inhibition constant Ki was found to be 62 nM at D(3) dopamine receptor and 1.1 nM at D(4) dopamine receptor [3].
`COCCOCCOc1ccc(NC(=O)NCCCN2CCN(c3ccccc3OC)CC2)c(-c2ccccc2)c1`: the inhibition constant Ki turned out to be 130 nM at D(2) dopamine receptor [1]; 74 nM on D(2) dopamine receptor [2]; 86 nM on D(3) dopamine receptor; 22 nM at D(1A) dopamine receptor; 3900 nM on D(1B) dopamine receptor; 38 nM in experiment [7]. Moreover, the Ki in experiment [8] turned out to be 410 nM; in [9] it was 220 nM; in experiment [10], 1500 nM.
`COc1ccccc1N1CCN(CCCNC(=O)Nc2ccccc2-c2cccc(F)c2)CC1`: the Ki on D(2) dopamine receptor [1] worked out at 170 nM; at D(2) dopamine receptor [2], 110 nM; on D(3) dopamine receptor, 23 nM; on D(4) dopamine receptor [3] it was 4 nM.
As for `COc1ccccc1N1CCN(CCCNC(=O)NCc2ccccc2-c2ccc(C(C)C)cc2)CC1`, the inhibitory constant (Ki) at D(2) dopamine receptor [1] amounted to 400 nM; at D(2) dopamine receptor [2], 170 nM; on D(3) dopamine receptor, 190 nM; on D(4) dopamine receptor [3] it was 36 nM.
On to `COc1ccccc1N1CCN(CCCNC(=O)Nc2ccc(F)cc2-c2ccccc2)CC1`, for which the Ki was 140 nM at D(2) dopamine receptor [1], 31 nM at D(2) dopamine receptor [2] and 29 nM at D(3) dopamine receptor.
In the same order, the values of `COc1ccccc1N1CCN(CCCNC(=O)Nc2ccccc2-c2ccc(C(C)C)cc2)CC1` are 150 nM, 90 nM and 34 nM.
Consider `COc1ccccc1N1CCN(CCCNC(=O)NCc2cc(F)ccc2-c2ccccc2)CC1`, for which the inhibition constant Ki stood at 88 nM on D(2) dopamine receptor [1], 38 nM at D(2) dopamine receptor [2], 150 nM on D(3) dopamine receptor and 4.6 nM at D(4) dopamine receptor [3].
In the same order, the values of `COc1ccccc1N1CCN(CCCNC(=O)Nc2cccc(-c3ccccc3)c2)CC1` are 46 nM, 18 nM, 26 nM and 7.2 nM.
`COc1ccccc1N1CCN(CCCNC(=O)NCc2ccc(F)cc2-c2ccccc2)CC1`: the inhibitory constant (Ki) was 73 nM at D(2) dopamine receptor [1], 40 nM at D(2) dopamine receptor [2], 99 nM on D(3) dopamine receptor and 2.7 nM on D(4) dopamine receptor [3].
On the same counts, the results for `COc1ccccc1N1CCN(CCCNC(=O)Nc2ccc(-c3ccccc3)cc2)CC1` are 340 nM, 130 nM, 22 nM and 110 nM.
On the same counts, the results for `COc1ccc(CNC(=O)NCCCN2CCN(c3ccccc3OC)CC2)c(-c2ccccc2)c1` are 160 nM, 37 nM, 92 nM and 3.1 nM.
On the same counts, the results for `COc1ccccc1N1CCN(CCCNC(=O)NCc2ccccc2-c2cccc(F)c2)CC1` are 86 nM, 67 nM, 210 nM and 3.1 nM.
Take `COc1cccc(-c2ccccc2NC(=O)NCCCN2CCN(c3ccccc3OC)CC2)c1`: the Ki came out at 120 nM at D(2) dopamine receptor [1], 110 nM at D(2) dopamine receptor [2], 24 nM at D(3) dopamine receptor and 10 nM on D(4) dopamine receptor [3].
Consider `COc1ccccc1N1CCN(CCCNC(=O)NN(Cc2ccccc2)c2ccc(F)cc2)CC1`, for which the figures for the EC50 on D(4) dopamine receptor [4], on D(4) dopamine receptor [5] and on D(4) dopamine receptor [6] were 41 nM, 470 nM and 410 nM, respectively.
Regarding `COc1ccc(-c2ccccc2)c(CNC(=O)NCCCN2CCN(c3ccccc3OC)CC2)c1`, the inhibition constant (Ki) on D(2) dopamine receptor [1] is 130 nM; on D(2) dopamine receptor [2] it was 78 nM; on D(3) dopamine receptor, 120 nM; at D(1A) dopamine receptor it was 280 nM; on D(1B) dopamine receptor it was 3000 nM; in experiment [7], 8.9 nM. Also, the inhibition constant Ki in experiment [8] was found to be 200 nM; in experiment [9], 27 nM; in [10] it was 120 nM.
Regarding `COc1ccccc1N1CCN(CCCNC(=O)NCc2c(F)cccc2-c2ccccc2)CC1`, the Ki at D(2) dopamine receptor [1] came to 210 nM; on D(2) dopamine receptor [2], 140 nM; at D(3) dopamine receptor it was 73 nM.
In the case of `COc1cccc(-c2ccccc2CNC(=O)NCCCN2CCN(c3ccccc3OC)CC2)c1`, the Ki on D(2) dopamine receptor [1] was found to be 220 nM; on D(2) dopamine receptor [2], 88 nM; on D(3) dopamine receptor, 75 nM; on D(4) dopamine receptor [3] it was 13 nM.
On the same counts, the results for `COc1ccccc1N1CCN(CCCNC(=O)NCc2ccccc2-c2ccc(F)cc2)CC1` are 210 nM, 75 nM, 99 nM and 5.3 nM.
Turning to `COc1ccccc1N1CCN(CCCNC(=O)NCc2ccccc2-c2ccc(-c3ccccc3)cc2)CC1`, the Ki came out at 460 nM at D(2) dopamine receptor [1], 290 nM at D(2) dopamine receptor [2], 370 nM at D(3) dopamine receptor and 15 nM on D(4) dopamine receptor [3].
Regarding `COc1ccccc1N1CCN(CCCNC(=O)Nc2ccccc2-c2ccc(C(C)(C)C)cc2)CC1`, the Ki at D(2) dopamine receptor [1] worked out at 120 nM; at D(2) dopamine receptor [2], 78 nM; at D(3) dopamine receptor, 70 nM; on D(4) dopamine receptor [3] it was 30 nM.

Values taken from ChEMBL document CHEMBL5346968, “Exploring Structural Determinants of Bias among D4 Subtype-Selective Dopamine Receptor Agonists” (J Med Chem, 2023).
